# Measured values reported in patent US20220331298A1, “TREATMENT OF FRAGILE X SYNDROME WITH IBUDILAST IN COMBINATION WITH METFORMIN, CANNBIDIOL, SERTRALINE OR QUERCETIN” (priority 2019, published 2022).
# Columns and labels:
# Type in all cases: in vivo
# Fmr1 KO2 mice [1] = experiment: Behavioral testing (all behavioural tests together)
# From the text: (§1) Fmr1 knockout 2 (Fmr1 KO2) mice were generated by deletion of the promoter and first exon of Fmr1. The Fmr1 KO2 it is both, protein and mRNA null. In this study we used Fmr1 KO2 and wild-type (WT) littermates generated on a C57BL/6J background and repeatedly backcrossed onto a C57BL/6J background for more than eight generations.
# (§2) There were five treatment groups per compound in the study with 10 male mice used per treatment group (all at 8 weeks of age): Group 1: wild-type littermate mice treated with vehicle (WT-Veh), Group 2: Fmr1 KO2 mice treated with vehicle (KO-Veh), Group 3: Fmr1 KO2 mice treated with ibudilast (KO-ibudilast); Group 4: Fmr1 KO2 mice treated with compound A (KO-[compound A]); Group 5: Fmr1 KO2 mice treated with ibudilast and compound A (KO-ibu/[compound A].
# For experiments, all mice were tested once in the same apparatus. Prior to testing, mice were placed in the apparatus for some minutes before the experiment. The apparatus was cleaned with moist and dry tissues before testing each mouse. The aim was to create a low but constant background mouse odor for all experimental subjects. Testers were blind to the genotype and treatment during all testing and data analysis. We assessed weight loss, fur loss, walking, eyes open, eye discharges and general behavior.
# (§3) Data were analyzed by one-way ANOVA with a Dunnett's multiple comparison post hoc test in which WT Vehicle group was used as reference and compared with all the other groups
# Fmr1 KO2 mice [2] = experiment: Social interaction (three-chambered sociability task)
# From the text: as §1, §2
# (§4) For experiments, all mice were tested once in the same apparatus. […] We assessed weight loss, fur loss, walking, eyes open, eye discharges and general behavior.
# In the three-chambered sociability task, a subject mouse was evaluated for its exploration of a novel social stimulus (novel mouse). […] The time spent exploring the novel mice was scored as exploration ratio.
# as §3
# Fmr1 KO2 mice [3] = experiment: Fear conditioning
# From the text: The Fmr1 KO2 it is both, protein and mRNA null. In this study we used Fmr1 KO2 and wild-type (WT) littermates generated on a C57BL/6J background and repeatedly backcrossed onto a C57BL/6J background for more than eight generations. There were five treatment groups per compound in the study with 10 male mice used per treatment group (all at 8 weeks of age): Group 1: wild-type littermate mice treated with vehicle (WT-Veh), Group 2: Fmr1 KO2 mice treated with vehicle (KO-Veh), Group 3: Fmr1 KO2 mice treated with ibudilast (KO-ibudilast); Group 4: Fmr1 KO2 mice treated with compound A (KO-[compound A]); Group 5: Fmr1 KO2 mice treated with ibudilast and compound A (KO-ibu/[compound A]. For experiments, all mice were tested once in the same apparatus. Prior to testing, mice were placed in the apparatus for some minutes before the experiment. The apparatus was cleaned with moist and dry tissues before testing each mouse. The aim was to create a low but constant background mouse odor for all experimental subjects. Testers were blind to the genotype and treatment during all testing and data analysis. We assessed weight loss, fur loss, walking, eyes open, eye discharges and general behavior. […] The dependent measure used in contextual fear conditioning was a freezing response following a pairing of an unconditioned stimulus (foot shock), with a conditioned stimulus, a particular context. […]
# Fmr1 KO2 mice [4] = experiment: Nesting
# From the text: The Fmr1 KO2 it is both, protein and mRNA null. In this study we used Fmr1 KO2 and wild-type (WT) littermates generated on a C57BL/6J background and repeatedly backcrossed onto a C57BL/6J background for more than eight generations. There were five treatment groups per compound in the study with 10 male mice used per treatment group (all at 8 weeks of age): Group 1: wild-type littermate mice treated with vehicle (WT-Veh), Group 2: Fmr1 KO2 mice treated with vehicle (KO-Veh), Group 3: Fmr1 KO2 mice treated with ibudilast (KO-ibudilast); Group 4: Fmr1 KO2 mice treated with compound A (KO-[compound A]); Group 5: Fmr1 KO2 mice treated with ibudilast and compound A (KO-ibu/[compound A]. For experiments, all mice were tested once in the same apparatus. Prior to testing, mice were placed in the apparatus for some minutes before the experiment. The apparatus was cleaned with moist and dry tissues before testing each mouse. The aim was to create a low but constant background mouse odor for all experimental subjects. Testers were blind to the genotype and treatment during all testing and data analysis. We assessed weight loss, fur loss, walking, eyes open, eye discharges and general behavior. […] Mice were placed individually into the nesting cages 1 hr. before the dark phase, and the results were assessed the next morning. Nest building was scored on a 5 point scale. […]
# Fmr1 KO2 mice [5] = experiment: Open field (hyperactivity)
# From the text: as §1, §2, §4
# The open-field apparatus was used to test hyperactivity. […] The number of squares entered by the whole body (locomotor activity) was counted. The movement of the mouse around the field was recorded with a video tracking device for 3 min (version NT4.0, Viewpoint).
# as §3
structure (smiles),measurement,setting,value
CN(C)C(=N)N=C(N)N [metformin],effect of the amount given alone in the behavioural tests,"Fmr1 KO2 mice [1]; metformin alone 25 mg/kg, FIG. 4",ineffective
C=C(C)[C@@H]1CCC(C)=C[C@H]1c1c(O)cc(CCCCC)cc1O [cannabidiol],effect of the amount given alone in the behavioural tests,"Fmr1 KO2 mice [1]; cannabidiol alone 5 mg/kg, FIG. 5",ineffective
O=c1c(O)c(-c2ccc(O)c(O)c2)oc2cc(O)cc(O)c12 [quercetin],effect of the amount given alone in the behavioural tests,"Fmr1 KO2 mice [1]; quercetin alone 5 mg/kg, FIG. 6",ineffective
CN[C@H]1CC[C@@H](c2ccc(Cl)c(Cl)c2)c2ccccc21 [sertraline],effect of the amount given alone in the behavioural tests,"Fmr1 KO2 mice [1]; sertraline alone 1 mg/kg, FIG. 3",ineffective
"CC(C)C(=O)c1c(C(C)C)nn2ccccc12 [ibudilast, 2-methyl-1-(2-propan-2-ylpyrazolo[1,5-a]pyridin-3-yl)propan-1-one]",sociability rescue,"Fmr1 KO2 mice [2]; ibudilast 3 mg/kg, FIG. 1",inactive
same,sociability rescue,"Fmr1 KO2 mice [2]; ibudilast 12 mg/kg, FIG. 2",fully rescued
same,fear conditioning rescue,"Fmr1 KO2 mice [3]; ibudilast 3 mg/kg, FIG. 1",partially rescued
same,fear conditioning rescue,"Fmr1 KO2 mice [3]; ibudilast 12 mg/kg, FIG. 2",fully rescued
same,nesting rescue,"Fmr1 KO2 mice [4]; ibudilast 3 mg/kg, FIG. 1",inactive
same,nesting rescue,"Fmr1 KO2 mice [4]; ibudilast 12 mg/kg, FIG. 2",fully rescued
same,effect of the amount given alone in the behavioural tests,Fmr1 KO2 mice [1]; ibudilast alone 3 mg/kg,ineffective
same,open field (hyperactivity) rescue,"Fmr1 KO2 mice [5]; ibudilast 3 mg/kg, FIG. 1",inactive
same,open field (hyperactivity) rescue,"Fmr1 KO2 mice [5]; ibudilast 12 mg/kg, FIG. 2",fully rescued
